{"source": "patent US6447997B1", "about": "“Gene coding for GADD153 as a clinical diagnostic and prognostic in cancer therapy” (Research Development Foundation, priority 1997, dated 2002)", "system": "GADD153 mRNA", "assay": "Change in GADD153 mRNA in tumor biopsies of head and neck cancer patients after cDDP-based treatment", "assay_type": "in vivo, human", "details": "24 h after start of first course", "method": "The present inventors have also discovered that the prognostic method for clinical response by a tumor to a chemotherapeutic agent can accurately predict a corresponding therapeutic response by a patient even though there exist several sources for potential variation. The relationship between the change in GADD153 mRNA level at 24 h after the start of the first course of treatment with cDDP or cDDP plus radiation therapy and subsequent tumor clinical response to this therapy in 32 patients with stage IV head and neck cancer was examined.\nThirty-two patients with previously untreated stage IV head and neck cancer were treated at the UCSD Cancer Center on a phase I/II experimental protocol. All patients had been considered to have unresectable tumors. All patients received i.a. cDDP (150-200 mg/M^2) and i.v. sodium thiosulfate infusion concurrently. The details of this treatment program have been published elsewhere by the present inventors (17,18), which description is specifically incorporated herein by reference. cDDP was dissolved in 400 ml of 0.9% saline and infused over 3-5 minutes through a microcatheter placed angiographically to selectively encompass the dominant blood supply of the targeted tumor. Simultaneous with the cDDP infusion, sodium thiosulfate was infused i.v. at a dose of 9 g/m^2 dissolved in 300 ml of distilled water over 3 minutes, followed by 12 g/m^2 dissolved in one liter of distilled water over 6 h by continuous infusion to prevent severe nephrotoxicity. Treatment was repeated weekly for a total of 4 doses. […] Tumor response was assessed at 2 months using criteria based on physical examination, repeat computed tomography/magnetic resonance imaging studies, and repeat endoscopy and biopsy. […]\nGADD153 message levels were quantified using a modification of the technique reported by Horikoshi et al (20). […] PCR products were separated on a 8 M (6%) acrylamide gel and analyzed using a Molecular Imaging System (BioRad, Hercules, Calif.). […]", "data": [{"compound": "[NH2][Pt]([NH2])([Cl])[Cl]", "note": "[cDDP, cisplatin]", "values": [{"measurement": "magnitude of increase, above baseline, in GADD153 mRNA, mean (SD)", "setting": "CR group (17 patients)", "result": "3.8±2.2", "unit": "fold"}, {"measurement": "magnitude of increase, above baseline, in GADD153 mRNA, mean (SD)", "setting": "NR group (7 patients with tumor progression)", "result": "0.8±0.5", "unit": "fold"}, {"measurement": "magnitude of increase, above baseline, in GADD153 mRNA, mean (SD)", "setting": "PR group, all 8 patients", "result": "1.6±0.9", "unit": "fold"}]}]}
